Reference: ChEMBL document CHEMBL1142498 (J Med Chem, 2008)

Legend:
Rattus norvegicus = species: Rattus norvegicus; assay: Displacement of [3H]prazosin from alpha1 adrenergic receptor in Sprague-Dawley rat cortical membrane at 1 uM
[1] = molecular target: Sodium-dependent serotonin transporter (Homo sapiens, UniProt P31645); type: cell-based, JAR
Description: Inhibition of 5-HT transporter-mediated [3H]5HT uptake in human Jar cells

[2] = molecular target: T1, 5-hydroxytryptamine receptor 1A (Homo sapiens, UniProt P08908)
T1 sequence (P08908 whole entry): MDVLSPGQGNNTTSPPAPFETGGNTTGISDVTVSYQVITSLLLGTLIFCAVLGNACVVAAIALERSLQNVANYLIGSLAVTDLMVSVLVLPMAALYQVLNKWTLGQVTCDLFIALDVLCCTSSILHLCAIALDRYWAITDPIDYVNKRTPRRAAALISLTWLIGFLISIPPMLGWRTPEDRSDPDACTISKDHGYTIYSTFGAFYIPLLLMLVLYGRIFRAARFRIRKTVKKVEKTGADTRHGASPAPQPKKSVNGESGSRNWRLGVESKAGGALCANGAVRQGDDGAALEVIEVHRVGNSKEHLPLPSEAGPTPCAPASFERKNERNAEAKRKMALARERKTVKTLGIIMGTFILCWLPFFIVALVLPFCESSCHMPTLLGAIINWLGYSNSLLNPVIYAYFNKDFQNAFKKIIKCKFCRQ
Description: Activity at human cloned 5HT1A receptor expressed in CHO cells assessed as blockade of 5-HT-stimulated [35S]GTPgammaS binding

[3] = molecular target: Sodium-dependent serotonin transporter (Rattus norvegicus, UniProt P31652)
Chain of Sodium-dependent serotonin transporter (Rattus norvegicus, UniProt P31652) (P31652 whole entry): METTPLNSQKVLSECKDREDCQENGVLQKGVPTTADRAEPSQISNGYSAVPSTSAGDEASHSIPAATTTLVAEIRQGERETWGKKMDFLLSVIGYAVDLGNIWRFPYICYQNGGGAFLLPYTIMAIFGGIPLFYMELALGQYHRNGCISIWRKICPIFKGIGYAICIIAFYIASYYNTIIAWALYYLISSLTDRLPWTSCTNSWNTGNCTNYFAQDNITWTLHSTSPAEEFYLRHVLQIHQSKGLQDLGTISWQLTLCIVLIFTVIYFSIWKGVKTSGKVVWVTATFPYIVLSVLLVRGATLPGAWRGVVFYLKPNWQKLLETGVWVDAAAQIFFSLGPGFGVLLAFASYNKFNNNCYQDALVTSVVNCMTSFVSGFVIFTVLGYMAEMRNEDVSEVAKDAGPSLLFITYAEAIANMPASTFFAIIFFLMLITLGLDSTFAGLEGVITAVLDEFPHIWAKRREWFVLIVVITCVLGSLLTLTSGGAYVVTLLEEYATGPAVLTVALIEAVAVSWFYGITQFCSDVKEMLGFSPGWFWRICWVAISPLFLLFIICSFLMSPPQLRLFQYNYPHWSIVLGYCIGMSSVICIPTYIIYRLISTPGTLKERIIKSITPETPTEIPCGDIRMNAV
Description: Displacement of [3H]paroxetine from serotonin transporter in Sprague-Dawley rat frontal cortical membrane

Chain of Sodium-dependent serotonin transporter (Homo sapiens, UniProt P31645) (P31645 whole entry): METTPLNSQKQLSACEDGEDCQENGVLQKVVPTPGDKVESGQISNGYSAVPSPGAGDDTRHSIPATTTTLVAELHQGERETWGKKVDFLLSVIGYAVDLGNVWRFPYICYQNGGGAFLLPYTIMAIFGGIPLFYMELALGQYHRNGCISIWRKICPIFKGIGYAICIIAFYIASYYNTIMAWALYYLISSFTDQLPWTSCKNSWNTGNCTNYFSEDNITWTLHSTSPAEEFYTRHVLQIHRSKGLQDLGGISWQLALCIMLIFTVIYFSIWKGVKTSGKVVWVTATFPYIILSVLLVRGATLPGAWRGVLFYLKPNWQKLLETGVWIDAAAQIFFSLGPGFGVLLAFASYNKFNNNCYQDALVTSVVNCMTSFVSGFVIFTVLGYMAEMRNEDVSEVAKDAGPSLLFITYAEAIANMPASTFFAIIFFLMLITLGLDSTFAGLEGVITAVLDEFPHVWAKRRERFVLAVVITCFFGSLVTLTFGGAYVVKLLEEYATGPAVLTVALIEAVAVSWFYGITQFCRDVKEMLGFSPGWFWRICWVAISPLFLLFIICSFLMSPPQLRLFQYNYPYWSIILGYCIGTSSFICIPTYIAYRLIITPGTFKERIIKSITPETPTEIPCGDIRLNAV

## NC(=O)c1ccc(F)c2c1CC(N(CCCCn1ccc3c(F)cccc31)C1CCC1)CO2 (centres undefined)
Rattus norvegicus
  Activity: 5%
[1]
  IC50: 0.103 µM

## CCCN(CCCCn1ccc2cc(F)ccc21)C1COc2c(F)ccc(C(N)=O)c2C1 (centres undefined)
[1]
  IC50: > 1 µM

## NC(=O)c1ccc(F)c2c1CC(N(CCCCn1ccc3cc(F)ccc31)C1CCC1)CO2 (centres undefined)
[1]
  IC50: > 1 µM
[2]
  IC50: > 1 µM

## NC(=O)c1ccc(F)c2c1CC(N(CCCCn1ccc3cccc(F)c31)CC1CC1)CO2 (centres undefined)
Rattus norvegicus
  Activity: 27%
[1]
  IC50: 0.138 µM

## CCCN(CC1CCc2[nH]c3ccc(F)cc3c2C1)[C@H]1COc2c(F)ccc(C(N)=O)c2C1 (single isomer, unassigned; (+)) [listing 1 of 2 here]
Rattus norvegicus
  Activity: 15%

## CCCNC(=O)c1ccc(F)c2c1CC(N(CCCc1c[nH]c3ccc(F)cc13)C1CCC1)CO2 (centres undefined)
Rattus norvegicus
  Activity: 21%
[1]
  IC50: 0.0327 µM
[3]
  Ki: 0.00796 µM

## NC(=O)c1ccc(F)c2c1CC(N(CCCCn1ccc3cccc(F)c31)C1CCC1)CO2 (centres undefined)
Rattus norvegicus
  Activity: 14%
[1]
  IC50: > 1 µM
[2]
  IC50: > 1 µM

## CCCN(CCCc1c[nH]c2ccc(F)cc12)[C@H]1COc2c(F)ccc(OC)c2C1
Rattus norvegicus
  Activity: 50%
[1]
  IC50: 0.379 µM

## NC(=O)c1ccc(F)c2c1CC(N(CCCc1c[nH]c3c(F)cc(F)cc13)C1CCC1)CO2 (single isomer, unassigned; (+)) [listing 1 of 2 here]
[1]
  IC50: 0.225 µM
[2]
  IC50: > 1 µM

## NC(=O)c1ccc(F)c2c1C[C@@H](N(CC1CC1)CC1CCc3[nH]c4ccc(F)cc4c3C1)CO2 (stereo in doubt; 59a) [listing 1 of 2 here]
[1]
  IC50: > 1 µM
[2]
  IC50: > 1 µM

## NC(=O)c1cccc2c1CC(N(CCCc1c[nH]c3ccc(F)cc13)C1CCC1)CO2 (stereo in doubt; (+)-35e) [listing 1 of 2 here]
Rattus norvegicus
  Activity: 6%

## COc1cccc2c1CC(N(CCCc1c[nH]c3ccc(F)cc13)C1CCC1)CO2 (centres undefined)
Rattus norvegicus
  Activity: 15%
[2]
  IC50: > 2 µM

## O=C(NC1CCC1)c1ccc(F)c2c1CC(N(CCCc1c[nH]c3ccc(F)cc13)C1CCC1)CO2 (centres undefined)
Rattus norvegicus
  Activity: 12%
[1]
  IC50: 0.0706 µM
[3]
  Ki: 0.00726 µM

## NC(=O)c1ccc(F)c2c1C[C@@H](N(CC1CC1)CC1CCc3[nH]c4ccc(F)cc4c3C1)CO2 (stereo in doubt; 59b) [listing 1 of 2 here]
Rattus norvegicus
  Activity: 22%

## NC(=O)c1ccc(F)c2c1CC(N(CCCc1c[nH]c3ccc(Cl)cc13)C1CCC1)CO2 (centres undefined)
Rattus norvegicus
  Activity: 20%
[1]
  IC50: 0.612 µM

## NC(=O)c1ccc(F)c2c1CC(N(CCCc1c[nH]c3c(Cl)cccc13)C1CCC1)CO2 (centres undefined)
Rattus norvegicus
  Activity: 29%
[1]
  IC50: > 1 µM
[2]
  IC50: > 1 µM

## CC(CCc1c[nH]c2ccc(F)cc12)N(CC1CC1)C1COc2c(F)ccc(C(N)=O)c2C1 (single isomer, unassigned; (-)) [listing 1 of 2 here]
[1]
  IC50: 0.193 µM
[2]
  IC50: 0.333 µM

## CNC(=O)c1ccc(F)c2c1CC(N(CCCc1c[nH]c3ccc(F)cc13)C1CCC1)CO2 (centres undefined)
Rattus norvegicus
  Activity: 27%
[1]
  IC50: 0.015 µM
[3]
  Ki: 0.0083 µM

## CN(C)C(=O)c1ccc(F)c2c1CC(N(CCCc1c[nH]c3ccc(F)cc13)C1CCC1)CO2 (centres undefined)
[1]
  IC50: 0.218 µM
[2]
  IC50: > 2 µM

## NC(=O)c1ccc(F)c2c1CC(N(CCCc1c[nH]c3c(F)cc(F)cc13)C1CCC1)CO2 (single isomer, unassigned; (-))
[1]
  IC50: 0.0716 µM
[2]
  IC50: 0.206 µM

## NC(=O)c1ccc(F)c2c1C[C@@H](N(CCCc1c[nH]c3ccc(F)cc13)C1CCC1)CO2
Rattus norvegicus
  Activity: 21%

## NC(=O)c1cccc2c1CC(N(CCCc1c[nH]c3ccc(F)cc13)C1CCC1)CO2 (stereo in doubt; 35e)
[1]
  IC50: 0.114 µM
[3]
  Ki: 0.00955 µM

## CCCN(CCCc1c[nH]c2ccc(F)cc12)C1COc2c(F)ccc(C(=O)NC)c2C1 (centres undefined)
[1]
  IC50: 0.0243 µM
[3]
  Ki: 0.0024 µM

## CCCN(CCCCn1ccc2c(F)cccc21)C1COc2c(F)ccc(C(N)=O)c2C1 (centres undefined)
Rattus norvegicus
  Activity: 23%
[1]
  IC50: > 1 µM

## CCNC(=O)c1ccc(F)c2c1CC(N(CCCc1c[nH]c3ccc(F)cc13)C1CCC1)CO2 (centres undefined)
Rattus norvegicus
  Activity: 12%
[1]
  IC50: 0.0279 µM
[3]
  Ki: 0.00947 µM
[2]
  IC50: > 1 µM

## NC(=O)c1ccc(F)c2c1CC(N(CCCc1c[nH]c3cc(F)ccc13)C1CCC1)CO2 (centres undefined)
Rattus norvegicus
  Activity: 30%
[1]
  IC50: 0.899 µM

## COc1cccc2c1C[C@@H](N(CCCc1c[nH]c3ccc(F)cc13)C1CCC1)CO2
Rattus norvegicus
  Activity: 15%

## CCCN(CCCc1c[nH]c2ccc(F)cc12)[C@@H]1COc2c(F)ccc(C(N)=O)c2C1
Rattus norvegicus
  Activity: 46%

## CCCN(CCCCn1ccc2cccc(F)c21)C1COc2c(F)ccc(C(N)=O)c2C1 (centres undefined)
Rattus norvegicus
  Activity: 39%
[1]
  IC50: 0.435 µM

## CCCN(CCCc1c[nH]c2ccc(F)cc12)[C@H]1COc2c(F)ccc(C(N)=O)c2C1
[2]
  IC50: 0.405 µM

## COc1cccc2c(CCCN(C3CCC3)C3COc4c(F)ccc(C(N)=O)c4C3)c[nH]c12 (centres undefined)
Rattus norvegicus
  Activity: 15%
[1]
  IC50: > 1 µM
[3]
  Ki: > 1 µM

## NC(=O)c1cccc2c1CC(N(CCCc1c[nH]c3ccc(F)cc13)C1CCC1)CO2 (single isomer, unassigned; (-)) [listing 1 of 2 here]
Rattus norvegicus
  Activity: 10%

## COC(=O)c1ccc(F)c2c1CC(N(CCCc1c[nH]c3ccc(F)cc13)C1CCC1)CO2 (centres undefined)
[1]
  IC50: 1.86 µM

## CCCN(CC1CCc2[nH]c3ccc(F)cc3c2C1)[C@H]1COc2c(F)ccc(C(N)=O)c2C1 (stereo in doubt; 58a) [listing 1 of 2 here]
Rattus norvegicus
  Activity: 5%

## O=C(NC1CC1)c1ccc(F)c2c1CC(N(CCCc1c[nH]c3ccc(F)cc13)C1CCC1)CO2 (centres undefined)
Rattus norvegicus
  Activity: 12%
[1]
  IC50: 0.0696 µM
[3]
  Ki: 0.00805 µM

## CCCN(CC1CCc2[nH]c3ccc(F)cc3c2C1)[C@H]1COc2c(F)ccc(C(N)=O)c2C1 (single isomer, unassigned; (+)) [listing 2 of 2 here]
[1]; jar
  IC50: > 1 µM

## CC(C)NC(=O)c1ccc(F)c2c1CC(N(CCCc1c[nH]c3ccc(F)cc13)C1CCC1)CO2 (centres undefined)
Rattus norvegicus
  Activity: 4%
[1]
  IC50: 0.0447 µM
[3]
  Ki: 0.0113 µM
[2]
  IC50: > 2 µM

## CCCN(CCCc1c[nH]c2ccc(F)cc12)[C@@H]1COc2c(F)ccc(OC)c2C1
[1]
  IC50: 0.452 µM

## N#Cc1ccc2[nH]cc(CCCN(C3CCC3)C3COc4c(F)ccc(C(N)=O)c4C3)c2c1 (single isomer, unassigned; (-))
Rattus norvegicus
  Activity: 19%

## NC(=O)c1ccc(F)c2c1C[C@@H](N(CC1CC1)CC1CCc3[nH]c4ccc(F)cc4c3C1)CO2 (stereo in doubt; 59b) [listing 2 of 2 here]
[1]; jar
  IC50: > 1 µM

## CC(CCc1c[nH]c2ccc(F)cc12)N(CC1CC1)C1COc2c(F)ccc(C(N)=O)c2C1 (single isomer, unassigned; (+)) [listing 1 of 2 here]
[1]
  IC50: 0.162 µM

## NC(=O)c1ccc(F)c2c1CC(N(CCCCn1ccc3ccc(F)cc31)C1CCC1)CO2 (centres undefined)
Rattus norvegicus
  Activity: 7%
[1]
  IC50: > 1 µM

## CCCN(CCCCn1ccc2ccc(F)cc21)C1COc2c(F)ccc(C(N)=O)c2C1 (centres undefined)
Rattus norvegicus
  Activity: 15%
[1]
  IC50: 0.776 µM

## NC(=O)c1ccc(F)c2c1CC(N(CCCc1c[nH]c3ccc(F)cc13)C1CCC1)CO2 (centres undefined)
Rattus norvegicus
  Activity: 16%

## CC(CCc1c[nH]c2ccc(F)cc12)N(CC1CC1)C1COc2c(F)ccc(C(N)=O)c2C1 (single isomer, unassigned; (-)) [listing 2 of 2 here]
Rattus norvegicus
  Activity: 15%

## NC(=O)c1ccc(F)c2c1CC(N(CCCCn1ccc3cc(F)ccc31)CC1CC1)CO2 (centres undefined)
[1]
  IC50: > 1 µM

## NC(=O)c1cccc2c1CC(N(CCCc1c[nH]c3ccc(F)cc13)C1CCC1)CO2 (stereo in doubt; (+)-35e) [listing 2 of 2 here]
[1]
  IC50: 0.0283 µM

## NC(=O)c1cccc2c1CC(N(CCCc1c[nH]c3ccc(F)cc13)C1CCC1)CO2 (single isomer, unassigned; (-)) [listing 2 of 2 here]
[1]
  IC50: 0.109 µM
[3]
  Ki: 0.0059 µM
[2]
  IC50: 0.066 µM

## NC(=O)c1ccc(Cl)c2c1CC(N(CCCc1c[nH]c3ccc(F)cc13)C1CCC1)CO2 (single isomer, unassigned; (-))
Rattus norvegicus
  Activity: 22%

## NC(=O)c1ccc(F)c2c1CC(N(CCCCn1ccc3c(F)cccc31)CC1CC1)CO2 (centres undefined)
Rattus norvegicus
  Activity: 18%
[1]
  IC50: > 1 µM
[2]
  IC50: > 1 µM

## O=C(NCC1CC1)c1ccc(F)c2c1CC(N(CCCc1c[nH]c3ccc(F)cc13)C1CCC1)CO2 (centres undefined)
Rattus norvegicus
  Activity: 31%
[1]
  IC50: 0.0436 µM
[3]
  Ki: 0.00691 µM
[2]
  IC50: > 1 µM

## NC(=O)c1ccc(F)c2c1CC(N(CCCCn1ccc3ccc(F)cc31)CC1CC1)CO2 (centres undefined)
[1]
  IC50: > 1 µM
[3]
  Ki: 0.00996 µM

## NC(=O)c1ccc(Cl)c2c1CC(N(CCCc1c[nH]c3ccc(F)cc13)C1CCC1)CO2 (stereo in doubt; 35d)
[1]
  IC50: 0.0565 µM
[3]
  Ki: 0.00374 µM
[2]
  IC50: > 1 µM

## COc1ccc2[nH]cc(CCCN(C3CCC3)C3COc4c(F)ccc(C(N)=O)c4C3)c2c1 (centres undefined)
[1]
  IC50: 0.834 µM
[3]
  Ki: > 1 µM
[2]
  IC50: 0.419 µM

## NC(=O)c1ccc(F)c2c1CC(N(CCCc1c[nH]c3c(F)cc(F)cc13)C1CCC1)CO2 (single isomer, unassigned; (+)) [listing 2 of 2 here]
Rattus norvegicus
  Activity: 5%

## NC(=O)c1ccc(F)c2c1C[C@@H](NCC1CCc3[nH]c4ccc(F)cc4c3C1)CO2 (stereo in doubt; 57a) [listing 1 of 2 here]
[1]
  IC50: 0.291 µM

## CC(CCc1c[nH]c2ccc(F)cc12)N(CC1CC1)C1COc2c(F)ccc(C(N)=O)c2C1 (single isomer, unassigned; (+)) [listing 2 of 2 here]
Rattus norvegicus
  Activity: 7%

## CCCN(CC1CCc2[nH]c3ccc(F)cc3c2C1)[C@H]1COc2c(F)ccc(C(N)=O)c2C1 (stereo in doubt; 58a) [listing 2 of 2 here]
[1]
  IC50: > 1 µM
[3]
  Ki: > 1 µM
[2]
  IC50: > 1 µM

## NC(=O)c1ccc(F)c2c1C[C@@H](NCC1CCc3[nH]c4ccc(F)cc4c3C1)CO2 (stereo in doubt; 57a) [listing 2 of 2 here]
Rattus norvegicus
  Activity: 23%

## NC(=O)c1ccc(F)c2c1C[C@@H](N(CC1CC1)CC1CCc3[nH]c4ccc(F)cc4c3C1)CO2 (stereo in doubt; 59a) [listing 2 of 2 here]
Rattus norvegicus
  Activity: 3%

## N#Cc1ccc2[nH]cc(CCCN(C3CCC3)C3COc4c(F)ccc(C(N)=O)c4C3)c2c1 (single isomer, unassigned; (+))
Rattus norvegicus
  Activity: 27%

## NC(=O)c1ccc(F)c2c1C[C@@H](NCC1CCc3[nH]c4ccc(F)cc4c3C1)CO2 (stereo in doubt; 57b)
[1]
  IC50: > 1 µM
